According to patent publication US20100280975A1, “SYSTEMS FOR CLINICAL TRIALS” (WisTa Laboratories Ltd., priority 2007, published 2010):

What was measured:
[1] = Adverse effects in the rember™ trial; assay type: in vivo, human
Method: Thus subjects in the Least Exposed Dose arm (ie subjects switched to the low (100 mg) dose after 6 months) who continued to decline withdrew from the study largely after 24 weeks. […] However, biased withdrawal was not a factor in CDR-mild subjects in the same low (100 mg) comparator treatment arm. Therefore the primary driver of non-random withdrawal in the rember™ trial was the experience of continuing rapid decline which was most apparent in the CDR-moderate group.

[2] = tested on: mild and moderate dementia of the Alzheimer type; assay: rember™ study: MMSE over 50 weeks; assay type: in vivo, human
Source text: Another standardised test is the Mini-Mental State Examination [MMSE] which was proposed as a simple and quickly administered method for grading cognitive function (Folstein M F, Folstein S E & McHugh P R. ‘Mini-mental state’. A practical method for grading the cognitive state of patients for the clinician. Journal of Psychiatric Research 1975 12 189-198.). The MMSE is the most widely used cognitive screening instrument for the detection of cognitive dysfunction due to dementia in geriatric and psychiatric patients (Tombaugh T N & McIntyre N J. The mini-mental state examination: a comprehensive review. Journal of the American Geriatric Society 1992 40 922-935). The MMSE evaluates orientation, memory, attention and language functions.
The mean decline observed over the 50-week study in placebo-treated subjects was 7.8 ADAS-cog units (FIG. 19). […] On the ADAS-cog scale, about 60% of subjects improved or stayed the same at 50 weeks. On the MMSE scale, 62% improved or stayed the same at 50 weeks. The odds of a patient not declining on either scale were about 3.4 times better at the 60 mg dose than on placebo-low. The corresponding effect sizes were −6.8 ADAS-cog units and 3.2 MMSE units over the 50-week trial.

[3] = tested on: mild and moderate dementia of the Alzheimer type; assay: Mild-brought-forward confirmatory analysis of ADAS-cog over 25 weeks; assay type: in vivo, human; details: for Mild-brought-forward CDR-mild effect size over 25 weeks / Mild-brought-forward CDR-moderate effect size over 25 weeks / Mild-brought-forward confirmatory analysis, overall effect size over 25 weeks: vs placebo/placebo-low; for Mild-brought-forward confirmatory analysis, overall change from baseline over 25 weeks: whole population, mixed-effects model
[4] = tested on: mild and moderate dementia of the Alzheimer type; assay: rember™ Phase 2 study: ADAS-cog change over 24 weeks
[5] = ITT/LOCF, with interaction term, week 24, CDR-mild, 30 mg tid
[6] = ITT/LOCF, with interaction term, week 24, CDR-mild, 60 mg tid
[7] = ITT/LOCF, with interaction term, week 24, CDR-mild, low (100 mg) tid
[8] = ITT/LOCF, with interaction term, week 24, CDR-moderate, 30 mg tid
[9] = ITT/LOCF, with interaction term, week 24, CDR-moderate, 60 mg tid
[10] = ITT/LOCF, with interaction term, week 24, CDR-moderate, low (100 mg) tid

CN(C)c1ccc2nc3ccc(=[N+](C)C)cc-3sc2c1 [rember™, methylthioninium chloride]
adverse effects ([1]; low (100 mg) bd, second 6-months of the study): adverse effects, most notably diarrhea | haematological side effects ([1]; tid vs. bd dosing regimes): showed a clear dose-response profile | initial symptomatic improvement at 15 weeks, MMSE ([2]; 60 mg dose): 0.8 MMSE units | effect size on MMSE over the 50-week trial ([2]; 60 mg tid): 3.2 MMSE units | subjects improved or stayed the same on the MMSE scale at 50 weeks ([2]; 60 mg tid): 62% | Mild-brought-forward CDR-mild change over 25 weeks ([3]; 30 mg): 3.07 ADAS-cog units | Mild-brought-forward CDR-mild change over 25 weeks ([3]; 60 mg): 1.07 ADAS-cog units | Mild-brought-forward CDR-mild change over 25 weeks ([3]; low (100 mg)): 3.60 ADAS-cog units | Mild-brought-forward CDR-mild effect size over 25 weeks ([3]; 30 mg): −1.19 ADAS-cog units | Mild-brought-forward CDR-mild effect size over 25 weeks ([3]; 60 mg): −3.19 ADAS-cog units | Mild-brought-forward CDR-mild effect size over 25 weeks ([3]; low (100 mg)): −0.66 ADAS-cog units | Mild-brought-forward CDR-moderate change over 25 weeks ([3]; 60 mg): 0.30 ADAS-cog units | Mild-brought-forward CDR-moderate change over 25 weeks ([3]; low (100 mg)): 4.82 ADAS-cog units | Mild-brought-forward CDR-moderate effect size over 25 weeks ([3]; 30 mg): 4.33 ADAS-cog units | Mild-brought-forward CDR-moderate effect size over 25 weeks ([3]; 60 mg): −5.67 ADAS-cog units | Mild-brought-forward CDR-moderate effect size over 25 weeks ([3]; low (100 mg)): −0.54 ADAS-cog units | Mild-brought-forward confirmatory analysis, overall effect size over 25 weeks ([3]; 30 mg): −2.39 ADAS-cog units | Mild-brought-forward confirmatory analysis, overall effect size over 25 weeks ([3]; 60 mg): −3.85 ADAS-cog units | Mild-brought-forward confirmatory analysis, overall effect size over 25 weeks ([3]; low (100 mg)): −0.84 ADAS-cog units | Mild-brought-forward confirmatory analysis, overall change from baseline over 25 weeks ([3]; 30 mg): 2.26 ADAS-cog units | Mild-brought-forward confirmatory analysis, overall change from baseline over 25 weeks ([3]; 60 mg): 0.78 ADAS-cog units | Mild-brought-forward confirmatory analysis, overall change from baseline over 25 weeks ([3]; low (100 mg)): 3.81 ADAS-cog units | effect size in the entire ITT population of mild and moderate AD ([4]; 60 mg tid, OC and LOCF analyses, 24 weeks, pooled CDR-mild and CDR-moderate): −1.0 to −1.2 ADAS-cog units | Estimate, ADAS-cog change vs placebo, LM (ANCOVA) analysis ([4]; ITT/LOCF, with interaction term, 24-week time-point, CDR-mild, 60 mg tid): −0.20 ADAS-cog units | Estimate, ADAS-cog change vs placebo, LM (ANCOVA) analysis ([4]; ITT/LOCF, with interaction term, 24-week time-point, CDR-mild, low (100 mg) tid): −0.79 ADAS-cog units | Estimate, ADAS-cog change vs placebo, LM (ANCOVA) analysis ([4]; ITT/LOCF, with interaction term, 24-week time-point, CDR-moderate, 30 mg tid): −3.00 ADAS-cog units | Estimate, ADAS-cog change vs placebo, LM (ANCOVA) analysis ([4]; ITT/LOCF, with interaction term, 24-week time-point, CDR-moderate, low (100 mg) tid): −0.40 ADAS-cog units | Estimate, change in ADAS-cog score vs intercept, least squares [4, 5]: 0.46 ADAS-cog units | Estimate, change in ADAS-cog score vs intercept, mixed effects [4, 5]: 0.46 ADAS-cog units | Estimate, change in ADAS-cog score vs intercept, least squares [4, 6]: −0.73 ADAS-cog units | Estimate, change in ADAS-cog score vs intercept, mixed effects [4, 6]: −0.73 ADAS-cog units | Estimate, change in ADAS-cog score vs intercept, least squares [4, 7]: −0.18 ADAS-cog units | Estimate, change in ADAS-cog score vs intercept, mixed effects [4, 7]: −0.18 ADAS-cog units | Estimate, change in ADAS-cog score vs intercept, least squares [4, 8]: −1.05 ADAS-cog units | Estimate, change in ADAS-cog score vs intercept, mixed effects [4, 8]: −1.05 ADAS-cog units | Estimate, change in ADAS-cog score vs intercept, least squares [4, 9]: −3.70 ADAS-cog units | Estimate, change in ADAS-cog score vs intercept, mixed effects [4, 9]: −3.70 ADAS-cog units | Estimate, change in ADAS-cog score vs intercept, least squares [4, 10]: 1.06 ADAS-cog units | Estimate, change in ADAS-cog score vs intercept, mixed effects [4, 10]: 1.06 ADAS-cog units | Estimate, ADAS-cog change vs placebo, LM (ANCOVA) analysis ([4]; ITT/LOCF, without interaction term, 24-week assessment data only, 30 mg tid): −0.04 ADAS-cog units | Estimate, ADAS-cog change vs placebo, LM (ANCOVA) analysis ([4]; ITT/LOCF, without interaction term, 24-week assessment data only, low (100 mg) tid): −0.78 ADAS-cog units | Estimate, change in ADAS-cog score vs intercept (placebo), linear least squares ([4]; ITT/LOCF, without interaction term, week 24, 30 mg tid): 0.04 ADAS-cog units
